Experimental data: PubChem BioAssay (NCI)
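Five concentrations, 48 hours, 96-well plates. GI50 = concentration required for 50% inhibition of growth. TGI: total growth inhibition.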

Key:
Assay in all cases: NCI anticancer screen, dose series, 48 h
[1] = tested on: SW-620 colon
[2] = tested on: A498 renal
[3] = tested on: MDA-MB-231 breast
[4] = tested on: OVCAR-4 ovarian
[5] = tested on: SF-268 CNS
[6] = tested on: BT-549 breast
[7] = tested on: OVCAR-3 ovarian
[8] = tested on: SN12C renal
[9] = tested on: HCT-15 colon
[10] = tested on: OVCAR-8 ovarian

`CCCCn1c2c(c3ccccc3c1=O)C(=O)c1ccccc1-2` showed a TGI [1] greater than 100 µM, a TGI [2] greater than 100 µM and a TGI [3] greater than 100 µM. The TGI [4] was 38.4 µM, the TGI [5] was greater than 100 µM and the TGI [6] was greater than 100 µM. For the same compound, the TGI [7] was greater than 100 µM, the TGI [8] was greater than 100 µM and the TGI [9] was greater than 100 µM. For the same compound, the TGI [10] was greater than 100 µM.
`COc1ccc2cc(C(=O)/C=C/c3cccc(Cl)c3Cl)ccc2c1` gave a GI50 [1] of 1.32 µM, a TGI [1] greater than 100 µM and a GI50 [2] of 18.1 µM. For the same compound, the TGI [2] was 32.1 µM, the GI50 [3] was 12.2 µM and the TGI [3] was 39.6 µM. The GI50 [4] was 44.6 µM, the TGI [4] was greater than 100 µM and the GI50 [5] was 18.8 µM. The TGI [5] was greater than 92.2 µM, the GI50 [6] was 12.5 µM and the TGI [6] was 48.9 µM. For the same compound, the GI50 [7] was 7.87 µM, the TGI [7] was 30.1 µM and the GI50 [8] was 5.67 µM. For the same compound, the TGI [8] was 32.3 µM, the GI50 [9] was 2.13 µM and the TGI [9] was greater than 34.2 µM. The GI50 [10] was 14.9 µM and the TGI [10] was greater than 100 µM.
`O=C(Nc1cnn2ccc(N3CCC[C@@H]3c3cc(F)ccc3F)nc12)N1CC[C@H](O)C1` gave a GI50 [1] greater than 100 µM, a TGI [1] greater than 100 µM and a GI50 [2] greater than 100 µM. It also gave a TGI [2] greater than 100 µM, a GI50 [3] greater than 100 µM and a TGI [3] greater than 100 µM. For the same compound, the GI50 [4] was greater than 100 µM, the TGI [4] was greater than 100 µM and the GI50 [5] was greater than 100 µM. It also gave a TGI [5] greater than 100 µM, a GI50 [6] greater than 100 µM and a TGI [6] greater than 100 µM. For the same compound, the GI50 [7] was greater than 100 µM, the TGI [7] was greater than 100 µM and the GI50 [8] was greater than 100 µM. It also gave a TGI [8] greater than 100 µM, a GI50 [9] greater than 100 µM and a TGI [9] greater than 100 µM. For the same compound, the GI50 [10] was greater than 100 µM and the TGI [10] was greater than 100 µM.
Work on `COc1cccc(/C=C/C(=O)c2ccc(Cl)cc2Cl)c1OC` yielded a GI50 [1] of 2.98 µM, a TGI [1] of 9.12 µM and a GI50 [2] of 16.2 µM. The TGI [2] was 30.5 µM, the GI50 [3] was 12.3 µM and the TGI [3] was 27.8 µM. The GI50 [4] was 11.3 µM, the TGI [4] was 34 µM and the GI50 [5] was 12.9 µM. For the same compound, the TGI [5] was 41.5 µM, the GI50 [6] was 5.93 µM and the TGI [6] was 20.2 µM. It also gave a GI50 [7] of 7.38 µM, a TGI [7] of 19.7 µM and a GI50 [8] of 5.73 µM. The TGI [8] was 19.9 µM, the GI50 [9] was 3.76 µM and the TGI [9] was 12.9 µM. The GI50 [10] was 3.73 µM and the TGI [10] was 13.7 µM.
With `COc1cc2cc(Oc3ccc(NC(=O)Nc4ccccc4)cc3)c(C)nc2cc1OCCN1CCCCC1` the GI50 [1] was 6.09 µM, the TGI [1] was 11.9 µM and the GI50 [2] was 4.75 µM. It also gave a TGI [2] of 9.3 µM, a GI50 [3] of 6.39 µM and a TGI [3] of 12.1 µM. The GI50 [4] was 6.96 µM, the TGI [4] was 18.2 µM and the GI50 [5] was 5.88 µM. The TGI [5] was 12.6 µM, the GI50 [6] was 5.63 µM and the TGI [6] was 11.2 µM. It also gave a GI50 [7] of 6.31 µM, a TGI [7] of 13.3 µM and a GI50 [8] of 5.15 µM. It also gave a TGI [8] of 10.2 µM, a GI50 [9] of 4.18 µM and a TGI [9] of 9.14 µM. It also gave a GI50 [10] of 6.26 µM and a TGI [10] of 15.3 µM.
In the case of `CC(C)(C)OC(=O)NCCCCCCCCn1c2c(c3ccccc3c1=O)C(=O)c1ccccc1-2`, the GI50 [1] is reported as greater than 50 µM, the TGI [1] is reported as greater than 50 µM and the GI50 [2] is reported as 15.5 µM. It also gave a TGI [2] greater than 47.7 µM, a GI50 [3] of 13.5 µM and a TGI [3] greater than 47.5 µM. The GI50 [4] was greater than 50 µM, the TGI [4] was greater than 50 µM and the GI50 [5] was 19.5 µM. It also gave a TGI [5] greater than 50 µM, a GI50 [6] of 15.6 µM and a TGI [6] greater than 50 µM. For the same compound, the TGI [7] was greater than 39.4 µM, the GI50 [8] was greater than 50 µM and the TGI [8] was greater than 50 µM. It also gave a GI50 [9] greater than 50 µM, a TGI [9] greater than 50 µM and a GI50 [10] of 33.9 µM. It also gave a TGI [10] greater than 50 µM.
In the case of `C=C(CN1CCN(c2cccc(C(F)(F)F)c2)CC1)c1ccc(C(=O)Nc2ccccc2N)cc1`, the GI50 [1] is reported as 1.28 µM, the TGI [1] is reported as 15.9 µM and the GI50 [2] is reported as 0.005 µM. It also gave a TGI [2] of 5.18 µM, a GI50 [3] of 0.941 µM and a TGI [3] of 3.39 µM. The GI50 [4] was 3.94 µM, the TGI [4] was 41 µM and the GI50 [5] was 1.43 µM. It also gave a TGI [5] of 10.8 µM, a GI50 [6] of 0.332 µM and a TGI [6] of 5.06 µM. It also gave a GI50 [7] of 0.545 µM, a TGI [7] of 6.2 µM and a GI50 [8] of 2.19 µM. For the same compound, the TGI [8] was 14.5 µM, the GI50 [9] was 0.48 µM and the TGI [9] was 3.62 µM. The GI50 [10] was 1.4 µM and the TGI [10] was 17.2 µM.
Compound `N#C/C(=C/C=C(\Cl)c1ccc(Cl)cc1)C(N)=O` has a GI50 [1] of 2.1 µM, a TGI [1] of 4.53 µM and a GI50 [2] of 13.2 µM. It also gave a TGI [2] of 27.7 µM, a GI50 [3] of 1.97 µM and a TGI [3] of 4.82 µM. For the same compound, the GI50 [4] was 4.91 µM, the TGI [4] was greater than 48.2 µM and the GI50 [5] was 3.46 µM. The TGI [5] was 13.6 µM, the GI50 [6] was 7 µM and the TGI [6] was 13.9 µM. For the same compound, the GI50 [7] was 0.269 µM, the TGI [7] was 1.76 µM and the GI50 [8] was 4.38 µM. For the same compound, the TGI [8] was 18.7 µM, the GI50 [9] was 2.79 µM and the TGI [9] was greater than 32.5 µM. The GI50 [10] was 6.39 µM and the TGI [10] was 12.6 µM.
With `CC(CN)[C@@H]1CC[C@]2(CO)CC[C@]3(C)[C@H](CC[C@@H]4[C@@]5(C)CCC(NCCO)C(C)(C)[C@@H]5CC[C@]43C)[C@@H]12` (stereo not given in full) the GI50 [1] was 1.71 µM, the TGI [1] was 3.26 µM and the GI50 [2] was 11 µM. For the same compound, the TGI [2] was 23.5 µM, the GI50 [3] was 1.38 µM and the TGI [3] was 2.86 µM. For the same compound, the GI50 [4] was 2.7 µM, the TGI [4] was 9.09 µM and the GI50 [5] was 1.75 µM. For the same compound, the TGI [5] was 3.94 µM, the GI50 [6] was 3.77 µM and the TGI [6] was 16.3 µM. For the same compound, the GI50 [7] was 2.1 µM, the TGI [7] was 4.6 µM and the GI50 [8] was 1.94 µM. It also gave a TGI [8] of 3.61 µM, a GI50 [9] of 1.98 µM and a TGI [9] of 3.97 µM. For the same compound, the GI50 [10] was 1.69 µM and the TGI [10] was 3.28 µM.
`O=C1C=CC(=O)C1(Br)Br` gave a TGI [1] of 27.9 µM, a TGI [2] of 27.4 µM and a TGI [3] of 23.1 µM. For the same compound, the TGI [4] was 33.2 µM, the TGI [5] was 37.9 µM and the TGI [6] was 24.9 µM. The TGI [7] was 31.4 µM, the TGI [8] was 21.4 µM and the TGI [9] was 17.3 µM. The TGI [10] was 24.1 µM.
In the case of `CS(=O)(=O)N1CCN(Cc2cc3nc(-c4cccc5[nH]ncc45)nc(N4CCOCC4)c3s2)CC1` (tested in a mixture with another compound), the GI50 [1] is reported as 0.824 µM, the TGI [1] is reported as greater than 100 µM and the GI50 [2] is reported as 0.136 µM. For the same compound, the TGI [2] was 0.774 µM, the GI50 [3] was 1.49 µM and the TGI [3] was greater than 100 µM. For the same compound, the GI50 [4] was 0.514 µM, the GI50 [5] was 0.152 µM and the GI50 [6] was 0.0316 µM. It also gave a TGI [6] of 0.102 µM, a GI50 [7] of 0.0615 µM and a TGI [7] of 0.586 µM. It also gave a GI50 [8] of 0.0898 µM, a GI50 [9] of 0.207 µM and a TGI [9] greater than 100 µM. The GI50 [10] was 0.154 µM.
Compound `O=C1C(Cl)=C(Nc2ccc3cn[nH]c3c2)C(=O)c2ccccc21` has a GI50 [1] of 1.36 µM, a TGI [1] of 2.95 µM and a GI50 [2] of 3.05 µM. It also gave a TGI [2] of 8.9 µM, a GI50 [3] of 1.41 µM and a TGI [3] of 2.73 µM. It also gave a GI50 [4] of 1.31 µM, a TGI [4] of 2.58 µM and a GI50 [5] of 1.63 µM. It also gave a TGI [5] of 3 µM, a GI50 [6] of 1.5 µM and a TGI [6] of 2.82 µM. For the same compound, the GI50 [7] was 1.08 µM, the TGI [7] was 2.27 µM and the GI50 [8] was 1.49 µM. For the same compound, the TGI [8] was 3.11 µM, the GI50 [9] was 1.01 µM and the TGI [9] was 2.17 µM. The GI50 [10] was 1.52 µM and the TGI [10] was 3.01 µM.
